Counter-ions that a name gives are not always drawn. Where only a bound is given, the exact number is not on record here.

The target in this experiment is T1, Androgen Receptor (Homo sapiens, UniProt P10275, T878A).
T1 construct: the AR gene was modified, using CRISPR/Cas9 editing, so the expressed AR protein included an 11 amino acid HiBiT tag; endogenous in cells; host or cells: clonal LnCaP-derived line, AR gene edited by CRISPR/Cas9
T1 sequence (P10275 whole entry T878A): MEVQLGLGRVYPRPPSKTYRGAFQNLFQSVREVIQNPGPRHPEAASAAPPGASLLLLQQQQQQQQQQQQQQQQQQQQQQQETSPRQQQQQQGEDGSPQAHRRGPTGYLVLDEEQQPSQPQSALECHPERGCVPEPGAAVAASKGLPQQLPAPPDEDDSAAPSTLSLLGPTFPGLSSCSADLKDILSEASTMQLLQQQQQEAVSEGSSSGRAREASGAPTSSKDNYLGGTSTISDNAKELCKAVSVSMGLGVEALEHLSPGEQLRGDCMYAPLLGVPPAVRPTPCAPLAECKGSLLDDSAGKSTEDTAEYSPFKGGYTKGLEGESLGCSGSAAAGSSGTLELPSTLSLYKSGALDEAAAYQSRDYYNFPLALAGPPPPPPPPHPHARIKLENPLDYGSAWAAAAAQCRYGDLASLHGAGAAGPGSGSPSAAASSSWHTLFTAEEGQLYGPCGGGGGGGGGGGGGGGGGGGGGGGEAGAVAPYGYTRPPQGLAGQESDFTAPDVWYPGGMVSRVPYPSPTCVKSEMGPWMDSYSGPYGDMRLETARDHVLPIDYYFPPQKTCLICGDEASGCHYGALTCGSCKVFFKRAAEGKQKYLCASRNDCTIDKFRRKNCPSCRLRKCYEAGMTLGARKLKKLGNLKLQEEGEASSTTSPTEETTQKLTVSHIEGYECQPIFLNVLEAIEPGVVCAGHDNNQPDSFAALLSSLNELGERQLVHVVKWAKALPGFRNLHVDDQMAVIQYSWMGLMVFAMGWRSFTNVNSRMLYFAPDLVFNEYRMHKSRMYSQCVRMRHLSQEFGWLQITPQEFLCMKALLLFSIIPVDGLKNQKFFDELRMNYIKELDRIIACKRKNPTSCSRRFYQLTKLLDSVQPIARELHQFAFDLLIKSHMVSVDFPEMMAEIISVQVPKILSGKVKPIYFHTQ
T1 sequence (Q96SW2 whole entry partner): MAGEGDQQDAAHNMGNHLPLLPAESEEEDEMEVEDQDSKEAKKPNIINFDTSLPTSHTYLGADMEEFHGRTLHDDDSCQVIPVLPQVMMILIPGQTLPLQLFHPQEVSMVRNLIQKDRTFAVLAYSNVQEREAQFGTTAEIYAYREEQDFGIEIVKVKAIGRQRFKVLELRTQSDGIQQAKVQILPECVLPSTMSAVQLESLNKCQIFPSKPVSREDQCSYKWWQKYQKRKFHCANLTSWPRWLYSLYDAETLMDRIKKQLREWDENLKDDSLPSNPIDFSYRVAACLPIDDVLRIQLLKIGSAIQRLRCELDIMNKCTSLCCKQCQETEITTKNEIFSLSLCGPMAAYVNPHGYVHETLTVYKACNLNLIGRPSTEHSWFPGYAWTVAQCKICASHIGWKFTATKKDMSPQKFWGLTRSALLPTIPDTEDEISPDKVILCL
T1 sequence (Q16531 whole entry partner): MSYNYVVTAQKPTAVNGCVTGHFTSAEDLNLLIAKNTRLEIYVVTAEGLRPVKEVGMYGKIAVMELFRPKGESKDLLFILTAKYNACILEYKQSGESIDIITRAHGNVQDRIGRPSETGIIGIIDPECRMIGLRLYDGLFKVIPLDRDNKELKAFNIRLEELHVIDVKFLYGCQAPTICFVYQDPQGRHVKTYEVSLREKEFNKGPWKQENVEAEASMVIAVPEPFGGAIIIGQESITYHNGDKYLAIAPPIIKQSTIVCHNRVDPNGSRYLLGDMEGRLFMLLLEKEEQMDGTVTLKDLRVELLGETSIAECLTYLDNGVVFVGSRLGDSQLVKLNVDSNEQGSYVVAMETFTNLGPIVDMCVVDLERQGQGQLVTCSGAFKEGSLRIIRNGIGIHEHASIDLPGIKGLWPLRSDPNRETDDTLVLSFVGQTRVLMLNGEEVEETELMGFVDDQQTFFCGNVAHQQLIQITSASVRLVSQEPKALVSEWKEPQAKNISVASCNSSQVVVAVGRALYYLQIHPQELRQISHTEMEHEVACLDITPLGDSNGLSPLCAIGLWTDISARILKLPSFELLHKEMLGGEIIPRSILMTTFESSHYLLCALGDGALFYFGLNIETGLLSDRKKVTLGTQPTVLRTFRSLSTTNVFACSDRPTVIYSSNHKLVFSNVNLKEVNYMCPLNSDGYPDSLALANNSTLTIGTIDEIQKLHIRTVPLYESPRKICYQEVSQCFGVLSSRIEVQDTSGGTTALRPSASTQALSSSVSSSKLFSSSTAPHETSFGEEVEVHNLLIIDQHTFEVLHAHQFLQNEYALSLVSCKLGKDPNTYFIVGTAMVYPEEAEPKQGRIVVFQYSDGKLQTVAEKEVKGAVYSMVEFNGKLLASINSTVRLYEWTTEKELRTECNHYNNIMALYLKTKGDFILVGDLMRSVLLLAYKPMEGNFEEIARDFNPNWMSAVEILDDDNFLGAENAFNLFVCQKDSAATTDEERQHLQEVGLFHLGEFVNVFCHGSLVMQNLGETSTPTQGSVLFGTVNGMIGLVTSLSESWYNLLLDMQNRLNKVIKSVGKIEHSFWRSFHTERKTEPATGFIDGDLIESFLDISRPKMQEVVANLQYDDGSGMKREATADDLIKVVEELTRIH
Kind of experiment: Androgen Receptor Degradation Assay (Nano-Glo HiBiT). The conditions noted are these: LNCaP, 18 h, HiBiT-tagged AR in human LnCaP cells, read-out: mean asymptote max. The experiment is classed as cell-based. The method in brief: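 LnCaP cells with CRISPR-knocked-in N-terminal HiBiT-tagged AR (10,000/well) treated 18 h at 37 °C with PROTACs over 11 threefold concentrations; lytic HiBiT luminescence normalised to DMSO (0%) and cell-free (100%) controls. Relative DC50 = 4-parameter fit inflection; absolute DC50 = 50% degradation interpolation; Dmax = maximum observed degradation.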
Regarding `CC(C)n1ccc2c(N3CCC(=O)NC3=O)cc(C(=O)N(C)C3CCN(CCCCOc4ccc(C(=O)N[C@H]5CC[C@H](Oc6ccc(C#N)c(Cl)c6)CC5)nc4)CC3)cc21` [EAR64, N-(1-(4-((6-(((1r,4r)-4-(3-Chloro-4-cyanophenoxy)cyclohexyl)carbamoyl)pyridin-3-yl)oxy)butyl)piperidin-4-yl)-4-(2,4-dioxotetrahydropyrimidin-1(2H)-yl)-1-isopropyl-N-methyl-1H-indole-6-carboxamide], the Dmax was not below 50%.

For `N#Cc1ccc(O[C@H]2CC[C@H](NC(=O)c3ccc(N4CCC(CN5CCC(F)(Cn6ccc7c(N8CCC(=O)NC8=O)cccc76)CC5)CC4)nn3)CC2)cc1Cl` [EAR168, N-((1r,4r)-4-(3-Chloro-4-cyanophenoxy)cyclohexyl)-6-(4-((4-((4-(2,4-dioxotetrahydropyrimidin-1(2H)-yl)-1H-indol-1-yl)methyl)-4-fluoropiperidin-1-yl)methyl)piperidin-1-yl)pyridazine-3-carboxamide], the Dmax is not below 50%.

As for `N#Cc1ccc(O[C@H]2CC[C@H](NC(=O)c3ccc(N4CC5CC(C4)C5CN4CCC(n5ncc6c(N7CCC(=O)NC7=O)cccc65)CC4)nn3)CC2)cc1Cl` (some centres unmarked) [EAR228, N-((1r,4r)-4-(3-chloro-4-cyanophenoxy)cyclohexyl)-6-(6-((4-(4-(2,4-dioxotetrahydropyrimidin-1(2H)-yl)-1H-indazol-1-yl)piperidin-1-yl)methyl)-3-azabicyclo[3.1.1]heptan-3-yl)pyridazine-3-carboxamide], the Dmax is not below 50%.

Turning to `N#Cc1ccc(O[C@H]2CC[C@H](NC(=O)c3ccc(N4CC5(CCC5CN5CCC(n6ncc7c(N8CCC(=O)NC8=O)cccc76)CC5)C4)nn3)CC2)cc1Cl` (some centres unmarked) [EAR236, N-((1r,4r)-4-(3-chloro-4-cyanophenoxy)cyclohexyl)-6-(5-((4-(4-(2,4-dioxotetrahydropyrimidin-1(2H)-yl)-1H-indazol-1-yl)piperidin-1-yl)methyl)-2-azaspiro[3.3]heptan-2-yl)pyridazine-3-carboxamide], the Dmax was not below 50%.

As for `CC1(C)CCN(c2ccc(C(=O)N[C@H]3CC[C@H](Oc4ccc(C#N)c(Cl)c4)CC3)nn2)CC1CN1CCC(n2ncc3c(N4CCC(=O)NC4=O)cccc32)CC1` (some centres unmarked) [EAR222, N-((1r,4r)-4-(3-chloro-4-cyanophenoxy)cyclohexyl)-6-(3-((4-(4-(2,4-dioxotetrahydropyrimidin-1(2H)-yl)-1H-indazol-1-yl)piperidin-1-yl)methyl)-4,4-dimethylpiperidin-1-yl)pyridazine-3-carboxamide], the Dmax was not below 50%.

As for `CC(C)n1ccc2c(N3CCC(=O)NC3=O)cc(C(=O)N3CCN(CCCCOc4ccc(N5C(=S)N(c6ccc(C#N)c(C(F)(F)F)c6)C(=O)C5(C)C)cc4)CC3)cc21` [EAR92, 4-(3-(4-(4-(4-(4-(2,4-Dioxotetrahydropyrimidin-1(2H)-yl)-1-isopropyl-1H-indole-6-carbonyl)piperazin-1-yl)butoxy)phenyl)-4,4-dimethyl-5-oxo-2-thioxoimidazolidin-1-yl)-2-(trifluoromethyl)benzonitrile], the Dmax was not below 50%.

For the compound `C[C@@H]1CN(c2ccc(C#N)c(Cl)c2)[C@@H](C)CN1C(=O)c1ccc(OCCCCCN2CCC(n3ccc4c(N5CCC(=O)NC5=O)cncc43)CC2)nc1` [EAR165, 2-Chloro-4-((2S,5R)-4-(6-((5-(4-(4-(2,4-dioxotetrahydropyrimidin-1(2H)-yl)-1H-pyrrolo[2,3-c]pyridin-1-yl)piperidin-1-yl)pentyl)oxy)nicotinoyl)-2,5-dimethylpiperazin-1-yl)benzonitrile], the Dmax was not below 50%.

Turning to `N#Cc1ccc(O[C@H]2CC[C@H](NC(=O)c3ccc(OCCCCN4CCC(n5ccc6c(N7CCC(=O)NC7=O)cccc65)CC4)cn3)CC2)cc1Cl` [EAR66, N-((1r,4r)-4-(3-chloro-4-cyanophenoxy)cyclohexyl)-5-(4-(4-(4-(2,4-dioxotetrahydropyrimidin-1(2H)-yl)-1H-indol-1-yl)piperidin-1-yl)butoxy)picolinamide], the Dmax is not below 50%.

As to `N#Cc1ccc(O[C@H]2CC[C@H](NC(=O)c3ccc(N4CCC(CN5CCC(n6ccc7c(N8CCC(=O)NC8=O)ccnc76)CC5)CC4)nn3)CC2)cc1C(F)(F)F` [EAR212, N-((1r,4r)-4-(4-Cyano-3-(trifluoromethyl)phenoxy)cyclohexyl)-6-(4-((4-(4-(2,4-dioxotetrahydropyrimidin-1(2H)-yl)-1H-pyrrolo[2,3-b]pyridin-1-yl)piperidin-1-yl)methyl)piperidin-1-yl)pyridazine-3-carboxamide], the Dmax was not below 50%.

With `N#Cc1ccc(O[C@H]2CC[C@H](NC(=O)c3ccc(N4CCC(CN5CCC[C@@H](n6ccc7c(N8CCC(=O)NC8=O)cccc76)C5)CC4)nn3)CC2)cc1Cl` [EAR184, N-((1r,4r)-4-(3-Chloro-4-cyanophenoxy)cyclohexyl)-6-(4-(((S)-3-(4-(2,4-dioxotetrahydropyrimidin-1(2H)-yl)-1H-indol-1-yl)piperidin-1-yl)methyl)piperidin-1-yl)pyridazine-3-carboxamide hydrochloride], the Dmax is not below 50%.

On to `CC(C)n1ccc2c(N3CCC(=O)NC3=O)cc(C(=O)N3CCN(CCCCCCc4ccc(C(=O)N[C@H]5C(C)(C)[C@H](Oc6ccc(C#N)c(C(F)(F)F)c6)C5(C)C)cc4)CC3)cc21` [EAR87, N-((1r,3r)-3-(4-Cyano-3-(trifluoromethyl)phenoxy)-2,2,4,4-tetramethylcyclobutyl)-4-(6-(4-(4-(2,4-dioxotetrahydropyrimidin-1(2H)-yl)-1-isopropyl-1H-indole-6-carbonyl)piperazin-1-yl)hexyl)benzamide], for which the Dmax is not below 50%.

For the compound `N#Cc1ccc(O[C@H]2CC[C@H](NC(=O)c3ccc(N4CC5CC(CN6CCC(n7ncc8c(N9CCC(=O)NC9=O)cccc87)CC6)(C5)C4)nn3)CC2)cc1Cl` [EAR219, N-((1r,4r)-4-(3-chloro-4-cyanophenoxy)cyclohexyl)-6-(1-((4-(4-(2,4-dioxotetrahydropyrimidin-1(2H)-yl)-1H-indazol-1-yl)piperidin-1-yl)methyl)-3-azabicyclo[3.1.1]heptan-3-yl)pyridazine-3-carboxamide], the Dmax is not below 50%.

`N#Cc1ccc(O[C@H]2CC[C@H](NC(=O)c3ccc(N4CCC(C#N)(CCN5CCC(n6ncc7c(N8CCC(=O)NC8=O)cccc76)CC5)CC4)nn3)CC2)cc1Cl` [EAR221, N-((1r,4r)-4-(3-chloro-4-cyanophenoxy)cyclohexyl)-6-(4-cyano-4-(2-(4-(4-(2,4-dioxotetrahydropyrimidin-1(2H)-yl)-1H-indazol-1-yl)piperidin-1-yl)ethyl)piperidin-1-yl)pyridazine-3-carboxamide]: the Dmax was not below 50%.

With `C[C@@H]1CN(c2ccc(C#N)c(Cl)c2)[C@@H](C)CN1C(=O)Nc1ccc(OCCCCN2CCC(n3ccc4c(N5CCC(=O)NC5=O)cncc43)CC2)nc1` [EAR111, (2R,5S)-4-(3-Chloro-4-cyanophenyl)-N-(6-(4-(4-(4-(2,4-dioxotetrahydropyrimidin-1(2H)-yl)-1H-pyrrolo[2,3-c]pyridin-1-yl)piperidin-1-yl)butoxy)pyridin-3-yl)-2,5-dimethylpiperazine-1-carboxamide], the Dmax was not below 50%.

The values are drawn from US20250205344A1, “2,4-DIOXOTETRAHYDROPYRIMIDINYL DERATIVES AS DEGRONS IN PROTACS” (GLAXOSMITHKLINE INTELLECTUAL PROPERTY DEVELOPMENT LIMITED, priority 2022, published 2025).
